These results are taken from the Kinase Knowledgebase extract (Sharma et al. 2016).

One experiment has as its target PIK3CB (Human) (UniProt P42338). The experiment can be described thus: Assessment of PIK3CB Kinase Activity.
Another experiment has as its target PIK3CA (human) (UniProt P42336). The experiment can be described thus: Assessment of PIK3CA Kinase Activity.

Sequence of PIK3CB (Human) (P42338 whole entry, looked up): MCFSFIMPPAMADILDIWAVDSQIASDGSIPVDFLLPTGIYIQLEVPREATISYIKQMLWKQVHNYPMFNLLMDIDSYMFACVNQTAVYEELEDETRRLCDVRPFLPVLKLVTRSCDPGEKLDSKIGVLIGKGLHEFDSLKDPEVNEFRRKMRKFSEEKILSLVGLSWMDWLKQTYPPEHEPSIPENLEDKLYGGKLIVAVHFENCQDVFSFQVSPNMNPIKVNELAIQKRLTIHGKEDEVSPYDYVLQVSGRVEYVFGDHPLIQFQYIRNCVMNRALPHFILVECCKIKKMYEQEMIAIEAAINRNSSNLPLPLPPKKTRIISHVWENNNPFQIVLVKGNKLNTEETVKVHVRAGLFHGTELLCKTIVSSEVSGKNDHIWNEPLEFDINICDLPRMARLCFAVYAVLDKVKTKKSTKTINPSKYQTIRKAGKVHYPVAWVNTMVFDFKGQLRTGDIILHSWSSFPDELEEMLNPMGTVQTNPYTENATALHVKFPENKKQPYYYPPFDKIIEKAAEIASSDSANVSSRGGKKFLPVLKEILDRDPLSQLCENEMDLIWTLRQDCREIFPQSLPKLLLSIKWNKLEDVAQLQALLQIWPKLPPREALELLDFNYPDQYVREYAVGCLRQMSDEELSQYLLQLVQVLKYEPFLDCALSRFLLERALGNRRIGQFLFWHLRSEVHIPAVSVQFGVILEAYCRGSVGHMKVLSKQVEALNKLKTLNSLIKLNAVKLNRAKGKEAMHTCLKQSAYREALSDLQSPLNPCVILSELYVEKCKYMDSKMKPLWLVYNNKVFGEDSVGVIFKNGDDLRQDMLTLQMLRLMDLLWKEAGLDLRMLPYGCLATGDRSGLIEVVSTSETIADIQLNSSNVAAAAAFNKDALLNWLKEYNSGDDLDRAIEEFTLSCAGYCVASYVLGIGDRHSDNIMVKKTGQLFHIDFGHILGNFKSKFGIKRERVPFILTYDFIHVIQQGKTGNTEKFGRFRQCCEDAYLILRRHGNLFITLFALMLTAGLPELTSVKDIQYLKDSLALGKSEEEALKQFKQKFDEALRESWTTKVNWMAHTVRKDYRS
Sequence of PIK3CA (human) (P42336 whole entry, looked up): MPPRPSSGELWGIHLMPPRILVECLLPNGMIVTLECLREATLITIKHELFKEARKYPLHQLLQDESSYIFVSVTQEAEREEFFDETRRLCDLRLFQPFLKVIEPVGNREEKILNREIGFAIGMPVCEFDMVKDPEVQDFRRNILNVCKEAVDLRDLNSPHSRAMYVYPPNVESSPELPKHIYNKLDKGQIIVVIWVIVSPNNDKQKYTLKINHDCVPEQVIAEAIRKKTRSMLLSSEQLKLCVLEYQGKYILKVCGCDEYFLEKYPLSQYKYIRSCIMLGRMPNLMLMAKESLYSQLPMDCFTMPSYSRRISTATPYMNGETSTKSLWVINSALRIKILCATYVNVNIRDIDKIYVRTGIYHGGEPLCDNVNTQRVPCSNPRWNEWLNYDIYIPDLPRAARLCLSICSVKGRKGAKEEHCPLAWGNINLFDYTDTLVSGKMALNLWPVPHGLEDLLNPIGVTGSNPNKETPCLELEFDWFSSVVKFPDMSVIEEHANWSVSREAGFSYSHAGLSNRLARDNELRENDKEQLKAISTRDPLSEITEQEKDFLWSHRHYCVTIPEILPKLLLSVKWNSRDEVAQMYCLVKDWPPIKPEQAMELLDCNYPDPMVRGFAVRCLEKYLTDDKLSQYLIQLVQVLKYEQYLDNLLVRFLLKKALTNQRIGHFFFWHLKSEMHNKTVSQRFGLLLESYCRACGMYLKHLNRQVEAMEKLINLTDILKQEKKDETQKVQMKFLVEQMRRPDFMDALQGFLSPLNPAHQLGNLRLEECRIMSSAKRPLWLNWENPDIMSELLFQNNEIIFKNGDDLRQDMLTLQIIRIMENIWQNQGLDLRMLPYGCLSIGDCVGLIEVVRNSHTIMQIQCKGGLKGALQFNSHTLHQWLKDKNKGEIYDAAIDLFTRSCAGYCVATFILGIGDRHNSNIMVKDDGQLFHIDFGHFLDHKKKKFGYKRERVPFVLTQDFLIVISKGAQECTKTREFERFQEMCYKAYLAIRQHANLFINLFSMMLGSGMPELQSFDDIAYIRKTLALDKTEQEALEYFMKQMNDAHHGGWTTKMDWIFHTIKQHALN

For `COc1c(OCCCN2CCOCC2)ccc2c1N=C(NC(=O)c1cnc(N)nc1C)N1CCN=C21`, the IC50 against PIK3CB (Human) and at PIK3CA (human) was less than 10 nM each time.
Turning to `COc1c(OCCCN2CCOCC2)ccc2c1N=C(NC(=O)c1ccc(C)nc1)N1CCN=C21`, the IC50 at PIK3CB (Human) and on PIK3CA (human) was less than 10 nM throughout.
On to `COc1c(OCCCN2CCOCC2)ccc2c1N=C(NC(=O)c1ccc(NC(=O)C3CC3)nc1)N1CCN=C21`, for which the IC50 against PIK3CB (Human) and against PIK3CA (human) was less than 10 nM throughout.
Take `COc1c(OCCCN2CCCCC2)ccc2c1N=C(NC(=O)c1cccnc1)N1CCN=C21`: the IC50 against PIK3CB (Human) and on PIK3CA (human) was less than 10 nM throughout.
On to `COCCNc1ccc(C(=O)NC2=Nc3c(ccc(OCCCN4CCOCC4)c3OC)C3=NCCN23)cn1`, for which the IC50 at PIK3CB (Human) and at PIK3CA (human) was less than 10 nM throughout.
Consider `CCN1CCOC(CCOc2ccc3c(c2OC)N=C(NC(=O)c2cccnc2)N2CCN=C32)C1` (centres undefined), for which the IC50 against PIK3CB (Human) and against PIK3CA (human) was less than 10 nM throughout.
In the case of `COc1c(OCCCN(C)C)ccc2c1N=C(NC(=O)c1cnc(N)s1)N1CCN=C21`, the concentration for half-maximal inhibition (IC50) against PIK3CB (Human) and at PIK3CA (human) was less than 10 nM each time.
As for `COc1c(OCCCN2C[C@@H](C)O[C@@H](C)C2)ccc2c1N=C(NC(=O)c1cccnc1)N1CCN=C21`, the IC50 on PIK3CB (Human) and at PIK3CA (human) was less than 10 nM throughout.
In the case of `COc1c(OCCCN2C[C@@H](C)O[C@@H](C)C2)ccc2c1N=C(NC(=O)c1cnc(N)nc1)N1CCN=C21`, the half-maximal inhibitory concentration (IC50) against PIK3CB (Human) and against PIK3CA (human) was less than 10 nM in each case.
With `CNC(=O)Nc1ccc(C(=O)NC2=Nc3c(ccc(OCCCN4CCOCC4)c3OC)C3=NCCN23)cn1`, the IC50 against PIK3CB (Human) and on PIK3CA (human) was less than 10 nM each time.
Turning to `COCCN1CCOC(COc2ccc3c(c2OC)N=C(NC(=O)c2cccnc2)N2CCN=C32)C1` (centres undefined), the IC50 against PIK3CB (Human) and against PIK3CA (human) was less than 10 nM throughout.
In the case of `COc1c(OCCCN2CCOCC2)ccc2c1N=C(NC(=O)c1sc(N)nc1C)N1CCN=C21`, the IC50 on PIK3CB (Human) and against PIK3CA (human) was less than 10 nM each time.
As for `COCCNc1ncc(C(=O)NC2=Nc3c(ccc(OCCCN4CCOCC4)c3OC)C3=NCCN23)cn1`, the IC50 against PIK3CB (Human) and on PIK3CA (human) was less than 10 nM each time.
Regarding `COc1c(OCCN2CCOCC2)ccc2c1N=C(NC(=O)c1cccnc1)N1CCN=C21`, the IC50 against PIK3CB (Human) and on PIK3CA (human) was less than 10 nM in each case.
As to `COc1c(OCCCN)ccc2c1N=C(NC(=O)c1cccnc1)N1CCN=C21`, the 50% inhibitory concentration (IC50) on PIK3CB (Human) and on PIK3CA (human) was less than 10 nM throughout.
`COc1c(OCCCN2CCOCC2)ccc2c1N=C(NC(=O)c1cnc(NCCN(C)C)nc1)N1CCN=C21`: the IC50 on PIK3CB (Human) and at PIK3CA (human) was less than 10 nM in each case.
As to `COc1cncc(C(=O)NC2=Nc3c(ccc(OCCCN4CCOCC4)c3OC)C3=NCCN23)c1`, the IC50 against PIK3CB (Human) and at PIK3CA (human) was less than 10 nM throughout.
`COc1c(OCCCN2C[C@@H](C)O[C@@H](C)C2)ccc2c1N=C(NC(=O)c1sc(C)nc1C)N1CCN=C21`: the IC50 against PIK3CB (Human) and at PIK3CA (human) was less than 10 nM in each case.
In the case of `CCN(CC)CCOc1ccc2c(c1OC)N=C(NC(=O)c1cccnc1)N1CCN=C21`, the IC50 at PIK3CB (Human) and at PIK3CA (human) was less than 10 nM throughout.
With `COc1c(OCCCN2CCOCC2)ccc2c1N=C(NC(=O)c1sc(C)nc1C)N1CCN=C21`, the half-inhibitory concentration (IC50) at PIK3CB (Human) and at PIK3CA (human) was less than 10 nM each time.
On to `COc1c(OCCCN(C)C)ccc2c1N=C(NC(=O)c1cccnc1)N1CCN=C21`, for which the IC50 at PIK3CB (Human) and against PIK3CA (human) was less than 10 nM in each case.
Turning to `CNCCCOc1ccc2c(c1OC)N=C(NC(=O)c1cccnc1)N1CCN=C21`, the IC50 at PIK3CB (Human) and against PIK3CA (human) was less than 10 nM in each case.
In the case of `COc1c(OCCCN(C)C)ccc2c1N=C(NC(=O)c1ccc[n+]([O-])c1)N1CCN=C21`, the IC50 on PIK3CA (human) is less than 10 nM.
As for `COc1c(OCCCN2CCOCC2)ccc2c1N=C(NC(=O)c1cnc(NCCO)nc1)N1CCN=C21`, the IC50 against PIK3CB (Human) and against PIK3CA (human) was less than 10 nM in each case.
Regarding `COc1c(OCC2CNCCO2)ccc2c1N=C(NC(=O)c1cccnc1)N1CCN=C21` (centres undefined), the IC50 on PIK3CB (Human) and against PIK3CA (human) was less than 10 nM each time.
With `COc1c(OCCCN2CCOC(CO)C2)ccc2c1N=C(NC(=O)c1cccnc1)N1CCN=C21` (centres undefined), the IC50 at PIK3CB (Human) and on PIK3CA (human) was less than 10 nM in each case.
On to `COc1c(OCCCN2CCOCC2)ccc2c1N=C(NC(=O)c1ccnc(N)c1)N1CCN=C21`, for which the 50% inhibitory concentration (IC50) against PIK3CB (Human) and against PIK3CA (human) was less than 10 nM throughout.
As to `COc1c(OCCCN2C[C@@H](C)O[C@@H](C)C2)ccc2c1N=C(NC(=O)c1ccc(C)nc1)N1CCN=C21`, the IC50 against PIK3CB (Human) and at PIK3CA (human) was less than 10 nM each time.
With `COc1c(OCCCN2CCOCC2)ccc2c1N=C(NC(=O)c1ccc(N)nc1)N1CCN=C21`, the 50% inhibitory concentration (IC50) at PIK3CB (Human) and at PIK3CA (human) was less than 10 nM in each case.
For `COc1c(OCCCN2C[C@@H](C)O[C@@H](C)C2)ccc2c1N=C(NC(=O)c1ccc(NC(C)=O)nc1)N1CCN=C21`, the IC50 against PIK3CB (Human) and at PIK3CA (human) was less than 10 nM each time.
Turning to `COc1c(OCCCN2CCOCC2)ccc2c1N=C(NC(=O)c1ccc(N(C)C)nc1)N1CCN=C21`, the IC50 on PIK3CB (Human) and against PIK3CA (human) was less than 10 nM throughout.
For `COc1c(OCCCN2CCOCC2)ccc2c1N=C(NC(=O)c1cccnc1)N1CCN=C21`, the IC50 on PIK3CB (Human) and at PIK3CA (human) was less than 10 nM each time.
For the compound `CCN(CC)CCCOc1ccc2c(c1OC)N=C(NC(=O)c1cccnc1)N1CCN=C21`, the IC50 at PIK3CB (Human) and on PIK3CA (human) was less than 10 nM throughout.
`COc1c(OCCCN2CCOCC2)ccc2c1N=C(NC(=O)c1ccc(NCc3ccco3)nc1)N1CCN=C21`: the IC50 on PIK3CB (Human) and against PIK3CA (human) was less than 10 nM throughout.
As to `COc1c(OCCCN(C)C)ccc2c1N=C(NC(=O)c1cnc(NCCN(C)C)nc1)N1CCN=C21`, the IC50 at PIK3CB (Human) and against PIK3CA (human) was less than 10 nM throughout.
Consider `COc1c(OCCN(C)C)ccc2c1N=C(NC(=O)c1cccnc1)N1CCN=C21`, for which the IC50 on PIK3CB (Human) and against PIK3CA (human) was less than 10 nM each time.
`COc1c(OCC(CO)CN2CCOCC2)ccc2c1N=C(NC(=O)c1cccnc1)N1CCN=C21` (centres undefined): the IC50 on PIK3CB (Human) and on PIK3CA (human) was less than 10 nM throughout.
As for `COc1c(OCCCN2CCOCC2)ccc2c1N=C(NC(=O)c1cnc(N)o1)N1CCN=C21`, the half-inhibitory concentration (IC50) on PIK3CB (Human) and on PIK3CA (human) was less than 10 nM in each case.
Consider `COc1c(OCCCN2CCOCC2)ccc2c1N=C(NC(=O)c1ccc(N3CC[C@@H](N)C3)nc1)N1CCN=C21`, for which the IC50 against PIK3CB (Human) and on PIK3CA (human) was less than 10 nM each time.
Consider `COc1c(OCCCN2CCOCC2)ccc2c1N=C(NC(=O)c1ccc(N)nc1C)N1CCN=C21`, for which the half-maximal inhibitory concentration (IC50) at PIK3CB (Human) and on PIK3CA (human) was less than 10 nM each time.
For `COc1c(OCCCN2C[C@@H](C)O[C@@H](C)C2)ccc2c1N=C(NC(=O)c1ccc(N)nc1)N1CCN=C21`, the IC50 against PIK3CB (Human) and at PIK3CA (human) was less than 10 nM each time.
With `COc1c(OCCCN2CCOCC2)ccc2c1N=C(NC(=O)c1cncn1C)N1CCN=C21`, the 50% inhibitory concentration (IC50) on PIK3CB (Human) and on PIK3CA (human) was less than 10 nM each time.
For the compound `CCCc1nc(N)ncc1C(=O)NC1=Nc2c(ccc(OCCCN3CCOCC3)c2OC)C2=NCCN12`, the IC50 at PIK3CB (Human) and against PIK3CA (human) was less than 10 nM in each case.
In the case of `COc1c(OCCCN2CCOCC2)ccc2c1N=C(NC(=O)c1cnc(N)c(Br)c1)N1CCN=C21`, the IC50 at PIK3CB (Human) and against PIK3CA (human) was less than 10 nM throughout.
Take `COc1c(OCCCN2CCOCC2)ccc2c1N=C(NC(=O)c1cnc(N)s1)N1CCN=C21`: the half-maximal inhibitory concentration (IC50) at PIK3CB (Human) and at PIK3CA (human) was less than 10 nM in each case.
`COc1c(OCCN2CCCC2)ccc2c1N=C(NC(=O)c1cccnc1)N1CCN=C21`: the IC50 against PIK3CB (Human) and against PIK3CA (human) was less than 10 nM throughout.
On to `COc1c(OCCCN2CCOCC2)ccc2c1N=C(NC(=O)c1ccc(F)nc1)N1CCN=C21`, for which the IC50 at PIK3CB (Human) and against PIK3CA (human) was less than 10 nM throughout.
As for `COc1c(OCCN2CCCCC2)ccc2c1N=C(NC(=O)c1cccnc1)N1CCN=C21`, the IC50 against PIK3CB (Human) and against PIK3CA (human) was less than 10 nM in each case.
Turning to `COc1c(OCCCN2CCOCC2)ccc2c1N=C(NC(=O)c1cncnc1)N1CCN=C21`, the IC50 at PIK3CB (Human) and on PIK3CA (human) was less than 10 nM each time.
For `COCCN1CCOC(CCCOc2ccc3c(c2OC)N=C(NC(=O)c2cccnc2)N2CCN=C32)C1` (centres undefined), the IC50 at PIK3CB (Human) and on PIK3CA (human) was less than 10 nM in each case.
For `COc1c(OCCN(C)C)ccc2c1N=C(NC(=O)c1sc(C)nc1C)N1CCN=C21`, the IC50 against PIK3CB (Human) and on PIK3CA (human) was less than 10 nM in each case.
`COc1c(OCC2CN(C)CCO2)ccc2c1N=C(NC(=O)c1cccnc1)N1CCN=C21` (centres undefined): the IC50 on PIK3CB (Human) and against PIK3CA (human) was less than 10 nM throughout.
`COc1c(OCCCN(C)C)ccc2c1N=C(NC(=O)c1cnc(N)nc1)N1CCN=C21`: the IC50 at PIK3CB (Human) and on PIK3CA (human) was less than 10 nM throughout.
Turning to `COc1c(OCCCN(C)C)ccc2c1N=C(NC(=O)c1ccc(N)nc1)N1CCN=C21`, the IC50 against PIK3CB (Human) and at PIK3CA (human) was less than 10 nM throughout.
With `COc1c(OCCN(C)C)ccc2c1N=C(NC(=O)c1cncnc1)N1CCN=C21`, the IC50 on PIK3CB (Human) and at PIK3CA (human) was less than 10 nM throughout.
With `COc1c(OCCCN2CCOCC2)ccc2c1N=C(NC(=O)c1ccc(NC(=O)C(C)C)nc1)N1CCN=C21`, the half-inhibitory concentration (IC50) on PIK3CB (Human) and against PIK3CA (human) was less than 10 nM each time.
As to `COc1c(OCCCN2CCOCC2)ccc2c1N=C(NC(=O)c1ccc(N3CC[C@H](N)C3)nc1)N1CCN=C21`, the IC50 on PIK3CB (Human) and against PIK3CA (human) was less than 10 nM throughout.
On to `COc1c(OCCCN2C[C@@H](C)O[C@@H](C)C2)ccc2c1N=C(NC(=O)c1cncnc1)N1CCN=C21`, for which the concentration for half-maximal inhibition (IC50) against PIK3CB (Human) and on PIK3CA (human) was less than 10 nM throughout.
Consider `COc1c(OCCCN2CCOCC2)ccc2c1N=C(NC(=O)c1ccc(NC(=O)NC(C)C)nc1)N1CCN=C21`, for which the IC50 against PIK3CB (Human) and on PIK3CA (human) was less than 10 nM in each case.
`COc1c(OCCCC2CN(CC3CCC3)CCO2)ccc2c1N=C(NC(=O)c1cccnc1)N1CCN=C21` (centres undefined): the IC50 on PIK3CB (Human) and against PIK3CA (human) was less than 10 nM in each case.

By IC50 is commonly meant the concentration needed to halve the response being measured. A high value points to a need for much substance.
